Measured values reported in the supplement of paper PMC9013687.
± gives the standard deviation of the averaged measurements.

Tests used:
Danio rerio embryo [1] = experiment: EC10 Bladder size_Decrease; higher = less potent; conditions: exposure time: 4 dpf
Experimental: (§1)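 Zebrafish embryos (UFZ-OBI strain) were exposed from 2 hpf for 48 h (2 dpf) or 96 h (4 dpf) at 28 °C; spontaneous tail coiling was scored at 25 hpf. Morphological features from automated image analysis (FishInspector), heart rate and locomotor response were fitted with drc models. Quantal endpoints were dichotomised at 2.5 SD from controls and fitted with a log-logistic model; heart rate, pigmentation and STC were normalised to the replicate control mean. Betamethasone was tested as betamethasone dipropionate, diflorasone as diflorasone diacetate.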

Danio rerio embryo [2] = experiment: EC50 Bladder size_Decrease; conditions: exposure time: 4 dpf
Experimental: as §1

Danio rerio embryo [3] = experiment: EC20 Lack of SB; higher = less potent; conditions: exposure time: 4 dpf
Experimental: as §1

Danio rerio embryo [4] = experiment: EC10 Eye-jaw distance_Decrease; higher = less potent; conditions: exposure time: 4 dpf
Experimental: as §1

Danio rerio embryo [5] = experiment: EC50 Eye-jaw distance_Decrease; conditions: exposure time: 4 dpf
Experimental: as §1

Danio rerio embryo [6] = test system: Danio rerio embryo
Experimental: as §1

Danio rerio embryo [7] = experiment: EC20 Body length_Decrease; higher = less potent
Experimental: as §1

Danio rerio embryo [8] = experiment: EC20 LMR dark; higher = less potent; conditions: exposure time: 4 dpf
Experimental: as §1

Danio rerio embryo [9] = experiment: EC20 Pericard size_Increase; higher = less potent
Experimental: as §1

Danio rerio embryo [10] = experiment: EC20 Curvature_Increase; higher = less potent
Experimental: as §1

Danio rerio embryo [11] = experiment: EC20 Bladder size_Decrease; higher = less potent; conditions: exposure time: 4 dpf
Experimental: as §1

Danio rerio embryo [12] = experiment: EC50 Yolk sac size_Increase; conditions: exposure time: 4 dpf
Experimental: as §1

Danio rerio embryo [13] = experiment: EC10 Any effect; higher = less potent
Experimental: as §1

Danio rerio embryo [14] = experiment: EC20 Eye-jaw distance_Decrease; higher = less potent; conditions: exposure time: 4 dpf
Experimental: as §1

Danio rerio embryo [15] = experiment: EC20 Otolith-eye distance_Decrease; higher = less potent; conditions: exposure time: 4 dpf
Experimental: as §1

Danio rerio embryo [16] = experiment: EC10 Curvature_Increase; higher = less potent
Experimental: as §1

Danio rerio embryo [17] = experiment: spontaneous tail coiling frequency (coils/min/embryo); higher = more spontaneous movement; conditions: 25 hpf
Experimental: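 Spontaneous tail coilings of zebrafish embryos exposed from 2 hpf were recorded at 24-25 hpf in 1-min videos and detected by a KNIME workflow from grey-value variance. Betamethasone was tested as the dipropionate, diflorasone as the diacetate.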

Danio rerio embryo [18] = experiment: EC10 Body length_Decrease; higher = less potent
Experimental: as §1

Danio rerio embryo [19] = experiment: EC50 Pericard size_Increase
Experimental: as §1

Danio rerio embryo [20] = experiment: EC10 Otolith-eye distance_Decrease; higher = less potent; conditions: exposure time: 4 dpf
Experimental: as §1

Danio rerio embryo [21] = experiment: EC20 Yolk sac size_Increase; higher = less potent; conditions: exposure time: 4 dpf
Experimental: as §1

Danio rerio embryo [22] = experiment: EC50 Curvature_Increase
Experimental: as §1

Danio rerio embryo [23] = experiment: EC10 LMR dark; higher = less potent; conditions: exposure time: 4 dpf
Experimental: as §1

Danio rerio embryo [24] = experiment: EC20 Head trunk angle_Decrease; higher = less potent; conditions: exposure time: 2 dpf
Experimental: as §1

Danio rerio embryo [25] = experiment: EC10 Pericard size_Increase; higher = less potent
Experimental: as §1

Danio rerio embryo [26] = experiment: EC10 Yolk sac size_Increase; higher = less potent; conditions: exposure time: 4 dpf
Experimental: as §1

Danio rerio embryo [27] = conditions: exposure time: 4 dpf
Experimental: as §1

Danio rerio embryo [28] = experiment: EC50 Body length_Decrease
Experimental: as §1

Danio rerio embryo [29] = experiment: EC50 Otolith-eye distance_Decrease; conditions: exposure time: 4 dpf
Experimental: as §1

Danio rerio embryo [30] = experiment: EC20 Any effect; higher = less potent
Experimental: as §1

CC(C)(C)C(O)C(Oc1ccc(Cl)cc1)n1cncn1 (stereo not given) [Triadimenol]
Conditions	EC10 Bladder size Decrease [µM]	EC10 Eye-jaw distance Decrease [µM]	EC10 LMR dark [µM]	EC10 Otolith-eye distance Decrease [µM]	EC10 Yolk sac size Increase [µM]	EC20 Bladder size Decrease [µM]	EC20 Eye-jaw distance Decrease [µM]	EC20 Head trunk angle Decrease [µM]	EC20 LMR dark [µM]	EC20 Lack of SB [µM]	EC20 Otolith-eye distance Decrease [µM]	EC20 Yolk sac size Increase [µM]	EC50 Bladder size Decrease [µM]	EC50 Eye-jaw distance Decrease [µM]	EC50 LMR dark [µM]	EC50 Otolith-eye distance Decrease [µM]	EC50 Yolk sac size Increase [µM]
Danio rerio embryo [1]	19.9	–	–	–	–	–	–	–	–	–	–	–	–	–	–	–	–
Danio rerio embryo [2]	–	–	–	–	–	–	–	–	–	–	–	–	20.7	–	–	–	–
Danio rerio embryo [3]	–	–	–	–	–	–	–	–	–	20.1	–	–	–	–	–	–	–
Danio rerio embryo [4]	–	36.1	–	–	–	–	–	–	–	–	–	–	–	–	–	–	–
Danio rerio embryo [5]	–	–	–	–	–	–	–	–	–	–	–	–	–	51.4	–	–	–
Danio rerio embryo [8]	–	–	–	–	–	–	–	–	10.7	–	–	–	–	–	–	–	–
Danio rerio embryo [11]	–	–	–	–	–	20.2	–	–	–	–	–	–	–	–	–	–	–
Danio rerio embryo [12]	–	–	–	–	–	–	–	–	–	–	–	–	–	–	–	–	114
Danio rerio embryo [14]	–	–	–	–	–	–	41.2	–	–	–	–	–	–	–	–	–	–
Danio rerio embryo [15]	–	–	–	–	–	–	–	–	–	–	74.3	–	–	–	–	–	–
Danio rerio embryo [20]	–	–	–	63.4	–	–	–	–	–	–	–	–	–	–	–	–	–
Danio rerio embryo [21]	–	–	–	–	–	–	–	–	–	–	–	88.7	–	–	–	–	–
Danio rerio embryo [23]	–	–	6.51	–	–	–	–	–	–	–	–	–	–	–	–	–	–
Danio rerio embryo [24]	–	–	–	–	–	–	–	113	–	–	–	–	–	–	–	–	–
Danio rerio embryo [26]	–	–	–	–	76.8	–	–	–	–	–	–	–	–	–	–	–	–
Danio rerio embryo [27]	–	–	–	–	–	–	–	–	–	–	–	–	–	–	25.2	–	–
Danio rerio embryo [29]	–	–	–	–	–	–	–	–	–	–	–	–	–	–	–	97.6	–

Conditions	EC10 Any effect [µM]	EC10 Body length Decrease [µM]	EC10 Curvature Increase [µM]	EC10 Pericard size Increase [µM]	EC20 Any effect [µM]	EC20 Body length Decrease [µM]	EC20 Curvature Increase [µM]	EC20 Pericard size Increase [µM]	EC50 Any effect [µM]	EC50 Body length Decrease [µM]	EC50 Curvature Increase [µM]	EC50 Pericard size Increase [µM]	EC50 STC decrease [µM]	spontaneous tail coiling frequency
Danio rerio embryo [6], exposure time: 2 dpf	–	–	–	–	–	–	–	–	133	–	–	–	–	–
Danio rerio embryo [6], exposure time: 4 dpf	–	–	–	–	–	–	–	–	45.5	–	–	–	–	–
Danio rerio embryo [6], exposure time: 25 h	–	–	–	–	–	–	–	–	–	–	–	–	169	–
Danio rerio embryo [7], exposure time: 2 dpf	–	–	–	–	–	98.6	–	–	–	–	–	–	–	–
Danio rerio embryo [7], exposure time: 4 dpf	–	–	–	–	–	82.5	–	–	–	–	–	–	–	–
Danio rerio embryo [9], exposure time: 2 dpf	–	–	–	–	–	–	–	146	–	–	–	–	–	–
Danio rerio embryo [9], exposure time: 4 dpf	–	–	–	–	–	–	–	71	–	–	–	–	–	–
Danio rerio embryo [10], exposure time: 2 dpf	–	–	–	–	–	–	123	–	–	–	–	–	–	–
Danio rerio embryo [10], exposure time: 4 dpf	–	–	–	–	–	–	82.4	–	–	–	–	–	–	–
Danio rerio embryo [13], exposure time: 2 dpf	123	–	–	–	–	–	–	–	–	–	–	–	–	–
Danio rerio embryo [13], exposure time: 4 dpf	25.7	–	–	–	–	–	–	–	–	–	–	–	–	–
Danio rerio embryo [16], exposure time: 2 dpf	–	–	116	–	–	–	–	–	–	–	–	–	–	–
Danio rerio embryo [16], exposure time: 4 dpf	–	–	67.2	–	–	–	–	–	–	–	–	–	–	–
Danio rerio embryo [17], 10.6 µM	–	–	–	–	–	–	–	–	–	–	–	–	–	2.49
Danio rerio embryo [17], 21.1 µM	–	–	–	–	–	–	–	–	–	–	–	–	–	2.29
Danio rerio embryo [17], 42.3 µM	–	–	–	–	–	–	–	–	–	–	–	–	–	3.32 ± 0.78
Danio rerio embryo [17], 84.5 µM	–	–	–	–	–	–	–	–	–	–	–	–	–	2.24 ± 0.39
Danio rerio embryo [17], 118.3 µM	–	–	–	–	–	–	–	–	–	–	–	–	–	1.91
Danio rerio embryo [17], 169.1 µM	–	–	–	–	–	–	–	–	–	–	–	–	–	1.28 ± 0.37
Danio rerio embryo [17], 253.6 µM	–	–	–	–	–	–	–	–	–	–	–	–	–	0.06
Danio rerio embryo [17], 338.1 µM	–	–	–	–	–	–	–	–	–	–	–	–	–	0
Danio rerio embryo [18], exposure time: 2 dpf	–	71.8	–	–	–	–	–	–	–	–	–	–	–	–
Danio rerio embryo [18], exposure time: 4 dpf	–	71.3	–	–	–	–	–	–	–	–	–	–	–	–
Danio rerio embryo [19], exposure time: 2 dpf	–	–	–	–	–	–	–	–	–	–	–	225	–	–
Danio rerio embryo [19], exposure time: 4 dpf	–	–	–	–	–	–	–	–	–	–	–	84.3	–	–
Danio rerio embryo [22], exposure time: 2 dpf	–	–	–	–	–	–	–	–	–	–	136	–	–	–
Danio rerio embryo [22], exposure time: 4 dpf	–	–	–	–	–	–	–	–	–	–	117	–	–	–
Danio rerio embryo [25], exposure time: 2 dpf	–	–	–	113	–	–	–	–	–	–	–	–	–	–
Danio rerio embryo [25], exposure time: 4 dpf	–	–	–	64.1	–	–	–	–	–	–	–	–	–	–
Danio rerio embryo [28], exposure time: 2 dpf	–	–	–	–	–	–	–	–	–	169	–	–	–	–
Danio rerio embryo [28], exposure time: 4 dpf	–	–	–	–	–	–	–	–	–	106	–	–	–	–
Danio rerio embryo [30], exposure time: 2 dpf	–	–	–	–	127	–	–	–	–	–	–	–	–	–
Danio rerio embryo [30], exposure time: 4 dpf	–	–	–	–	31.7	–	–	–	–	–	–	–	–	–
